Earlier results, collected in patent publication US20230078230A1, “METHODS FOR THE PRODUCTION OF COMMITTED CARDIAC PROGENITOR CELLS” (FUJIFILM Cellular Dynamics, Inc., priority 2021, published 2023).

Experiments:
[1] = system: pluripotent stem cell-derived cardiomyocytes
ROCK1/ROCK2 = conditions: ROCK1/ROCK2, competing with ATP

IC50 (ROCK1/ROCK2)	SMILES	effect on contractile activity [1]
–	CNC[C@H](O)c1cccc(O)c1 [phenylephrine]	positive chronotropic effect
–	CC(C)NCC(O)c1ccc(O)c(O)c1 (stereo not shown) [isoprenaline]	positive chronotropic effect
–	COc1ccc([C@@H]2Sc3ccccc3N(CCN(C)C)C(=O)[C@@H]2OC(C)=O)cc1 [diltiazem]	inhibits contractile activity in a dose-dependent manner
800 nM	C[C@@H](N)[C@H]1CC[C@H](C(=O)Nc2ccncc2)CC1 [Y-27632]	–
